Columns and labels:
Test in all cases: biochemical
Parameters in all cases: KINOMEscan competition binding panel (Eurofins DiscoverX), single concentration, percent inhibition
Conditions in all cases: read-out: 15 at 1 µM % inhibition
ABL1-nonphosphorylated = target: T1, ABL1-nonphosphorylated (Homo sapiens, UniProt P00519)
T1 construct: nonphosphorylated
In short: (§1)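 Compounds were submitted at 1 µM to a KINOMEscan assay covering more than 400 human kinases. The screen served to define the selectivity profile.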

CDK4-cyclinD3 = target: T2, CDK4-cyclinD3 (Homo sapiens, UniProt P11802)
T2 construct: cyclinD3
In short: as §1

CLK2 = CLK2 (Homo sapiens, UniProt P49760)
In short: as §1

CSNK1A1L = CSNK1A1L (Homo sapiens, UniProt Q8N752)
In short: as §1

DAPK3 = DAPK3 (Homo sapiens, UniProt O43293)
In short: as §1

DCAMKL2 = target: T3, DCAMKL2 (Homo sapiens, UniProt Q8N568)
T3 construct: gene DCLK2
In short: as §1

DYRK1B = DYRK1B (Homo sapiens, UniProt Q9Y463)
DYRK1B, sequence (Q9Y463 whole entry): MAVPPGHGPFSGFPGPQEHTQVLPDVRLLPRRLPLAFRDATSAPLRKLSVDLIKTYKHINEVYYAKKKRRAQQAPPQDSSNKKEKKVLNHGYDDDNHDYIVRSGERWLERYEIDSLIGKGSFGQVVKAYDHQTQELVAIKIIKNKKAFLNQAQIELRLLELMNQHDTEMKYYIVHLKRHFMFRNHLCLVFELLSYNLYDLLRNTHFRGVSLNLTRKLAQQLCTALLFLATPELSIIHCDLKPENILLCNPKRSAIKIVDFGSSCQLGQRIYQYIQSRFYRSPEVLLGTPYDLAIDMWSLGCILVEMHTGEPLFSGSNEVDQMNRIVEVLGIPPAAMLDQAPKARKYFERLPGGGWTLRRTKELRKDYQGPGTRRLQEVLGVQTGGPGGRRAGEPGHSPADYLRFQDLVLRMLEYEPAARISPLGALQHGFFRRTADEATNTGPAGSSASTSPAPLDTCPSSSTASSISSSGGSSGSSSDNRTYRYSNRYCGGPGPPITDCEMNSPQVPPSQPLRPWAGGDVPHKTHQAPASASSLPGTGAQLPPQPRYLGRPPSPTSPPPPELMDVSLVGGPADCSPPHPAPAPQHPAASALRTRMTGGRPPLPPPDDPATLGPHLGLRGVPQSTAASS
In short: as §1

EPHA4 = EPHA4 (Homo sapiens, UniProt P54764)
In short: as §1

EPHA5 = EPHA5 (Homo sapiens, UniProt P54756)
In short: as §1

EPHB1 = EPHB1 (Homo sapiens, UniProt P54762)
In short: as §1

FGFR4 = FGFR4 (Homo sapiens, UniProt P22455)
FGFR4, sequence (P22455 whole entry): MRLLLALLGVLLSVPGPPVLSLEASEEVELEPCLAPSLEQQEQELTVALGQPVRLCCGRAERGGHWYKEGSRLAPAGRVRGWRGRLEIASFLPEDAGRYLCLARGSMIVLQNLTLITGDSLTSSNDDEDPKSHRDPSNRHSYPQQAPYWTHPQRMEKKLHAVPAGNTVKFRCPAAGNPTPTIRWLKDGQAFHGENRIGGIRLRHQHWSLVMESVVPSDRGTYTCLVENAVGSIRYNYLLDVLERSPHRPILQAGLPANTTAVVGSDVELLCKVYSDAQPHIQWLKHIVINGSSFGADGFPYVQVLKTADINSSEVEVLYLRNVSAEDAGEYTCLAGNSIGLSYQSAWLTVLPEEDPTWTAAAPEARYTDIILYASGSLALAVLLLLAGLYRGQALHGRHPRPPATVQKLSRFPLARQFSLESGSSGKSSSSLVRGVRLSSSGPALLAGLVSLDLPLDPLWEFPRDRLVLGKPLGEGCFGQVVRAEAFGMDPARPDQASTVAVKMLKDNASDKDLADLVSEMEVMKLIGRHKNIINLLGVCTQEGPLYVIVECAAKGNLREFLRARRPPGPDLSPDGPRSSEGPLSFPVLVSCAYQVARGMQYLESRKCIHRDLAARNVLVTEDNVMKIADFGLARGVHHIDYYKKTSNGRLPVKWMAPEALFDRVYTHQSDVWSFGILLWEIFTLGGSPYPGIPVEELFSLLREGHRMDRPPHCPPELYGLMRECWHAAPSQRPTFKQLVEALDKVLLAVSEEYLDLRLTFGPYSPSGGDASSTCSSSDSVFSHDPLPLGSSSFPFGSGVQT
In short: as §1

FGR = FGR (Homo sapiens, UniProt P09769)
FGR, sequence (P09769 whole entry): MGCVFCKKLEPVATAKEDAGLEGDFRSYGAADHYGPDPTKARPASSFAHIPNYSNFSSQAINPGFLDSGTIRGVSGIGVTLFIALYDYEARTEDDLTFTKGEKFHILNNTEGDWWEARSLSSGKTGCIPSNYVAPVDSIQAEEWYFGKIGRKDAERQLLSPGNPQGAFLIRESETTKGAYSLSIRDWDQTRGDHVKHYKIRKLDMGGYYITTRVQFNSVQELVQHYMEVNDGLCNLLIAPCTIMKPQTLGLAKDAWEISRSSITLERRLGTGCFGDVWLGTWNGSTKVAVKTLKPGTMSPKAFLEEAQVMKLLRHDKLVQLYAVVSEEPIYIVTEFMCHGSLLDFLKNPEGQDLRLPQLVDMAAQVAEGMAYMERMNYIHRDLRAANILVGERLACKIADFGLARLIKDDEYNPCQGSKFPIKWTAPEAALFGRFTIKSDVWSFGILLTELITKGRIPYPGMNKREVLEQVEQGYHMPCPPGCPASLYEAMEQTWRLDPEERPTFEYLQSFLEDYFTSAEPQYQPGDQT
In short: as §1

[1] = target: T4, JAK2(JH1domain-catalytic) (Homo sapiens, UniProt O60674)
T4 construct: JH1domain-catalytic
In short: as §1

MAP4K2 = MAP4K2 (Homo sapiens, UniProt Q12851)
In short: as §1

NIM1 = target: T5, NIM1 (Homo sapiens, UniProt Q8IY84)
T5 construct: gene NIM1K
In short: as §1

PIK3C2G = PIK3C2G (Homo sapiens, UniProt O75747)
PIK3C2G, sequence (O75747 whole entry): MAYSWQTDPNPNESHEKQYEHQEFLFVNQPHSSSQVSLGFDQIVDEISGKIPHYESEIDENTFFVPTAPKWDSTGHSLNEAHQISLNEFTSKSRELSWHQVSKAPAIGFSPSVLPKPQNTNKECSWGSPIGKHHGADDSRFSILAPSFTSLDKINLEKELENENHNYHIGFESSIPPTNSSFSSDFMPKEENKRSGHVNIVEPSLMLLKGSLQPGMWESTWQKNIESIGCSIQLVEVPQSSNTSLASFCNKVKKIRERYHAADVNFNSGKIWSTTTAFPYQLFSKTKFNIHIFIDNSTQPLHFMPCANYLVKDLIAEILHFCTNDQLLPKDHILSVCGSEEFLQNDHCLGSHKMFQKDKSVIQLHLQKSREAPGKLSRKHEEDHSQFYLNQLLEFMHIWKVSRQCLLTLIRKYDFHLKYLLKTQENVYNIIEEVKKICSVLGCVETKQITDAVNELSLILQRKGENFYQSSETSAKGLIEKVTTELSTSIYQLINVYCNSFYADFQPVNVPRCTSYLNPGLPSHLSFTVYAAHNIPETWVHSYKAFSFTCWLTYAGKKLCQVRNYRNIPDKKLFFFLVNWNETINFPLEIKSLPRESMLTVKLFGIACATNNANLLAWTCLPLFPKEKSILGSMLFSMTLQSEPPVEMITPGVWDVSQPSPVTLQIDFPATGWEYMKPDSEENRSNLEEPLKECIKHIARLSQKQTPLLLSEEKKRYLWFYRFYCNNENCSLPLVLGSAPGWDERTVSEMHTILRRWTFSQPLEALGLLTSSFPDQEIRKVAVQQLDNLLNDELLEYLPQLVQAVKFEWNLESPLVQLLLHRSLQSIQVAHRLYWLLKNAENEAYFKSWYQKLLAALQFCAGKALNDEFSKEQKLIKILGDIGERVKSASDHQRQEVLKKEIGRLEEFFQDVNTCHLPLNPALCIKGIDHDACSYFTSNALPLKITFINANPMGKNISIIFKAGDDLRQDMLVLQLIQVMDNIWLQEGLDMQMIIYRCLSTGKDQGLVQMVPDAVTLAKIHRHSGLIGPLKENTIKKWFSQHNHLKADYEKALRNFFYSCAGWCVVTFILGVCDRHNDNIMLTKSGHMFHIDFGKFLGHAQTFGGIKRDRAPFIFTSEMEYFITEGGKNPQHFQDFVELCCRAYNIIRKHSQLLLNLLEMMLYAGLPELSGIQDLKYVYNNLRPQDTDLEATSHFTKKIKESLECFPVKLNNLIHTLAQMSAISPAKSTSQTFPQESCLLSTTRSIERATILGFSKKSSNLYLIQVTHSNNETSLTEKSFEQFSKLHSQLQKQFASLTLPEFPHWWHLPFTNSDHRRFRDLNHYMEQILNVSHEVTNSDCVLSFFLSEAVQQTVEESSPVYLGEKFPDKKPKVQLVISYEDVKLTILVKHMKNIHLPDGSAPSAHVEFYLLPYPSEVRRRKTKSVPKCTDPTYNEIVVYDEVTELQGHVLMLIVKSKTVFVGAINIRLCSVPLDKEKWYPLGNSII
In short: as §1

RIOK2 = RIOK2 (Homo sapiens, UniProt Q9BVS4)
In short: as §1

RIPK2 = RIPK2 (Homo sapiens, UniProt O43353)
In short: as §1

[2] = target: T6, RPS6KA4(Kin.Dom.2-C-terminal) (Homo sapiens, UniProt O75676)
T6 construct: Kin.Dom.2-C-terminal
In short: as §1

SGK2 = SGK2 (Homo sapiens, UniProt Q9HBY8)
In short: as §1

SGK3 = SGK3 (Homo sapiens, UniProt Q96BR1)
SGK3, sequence (Q96BR1 whole entry): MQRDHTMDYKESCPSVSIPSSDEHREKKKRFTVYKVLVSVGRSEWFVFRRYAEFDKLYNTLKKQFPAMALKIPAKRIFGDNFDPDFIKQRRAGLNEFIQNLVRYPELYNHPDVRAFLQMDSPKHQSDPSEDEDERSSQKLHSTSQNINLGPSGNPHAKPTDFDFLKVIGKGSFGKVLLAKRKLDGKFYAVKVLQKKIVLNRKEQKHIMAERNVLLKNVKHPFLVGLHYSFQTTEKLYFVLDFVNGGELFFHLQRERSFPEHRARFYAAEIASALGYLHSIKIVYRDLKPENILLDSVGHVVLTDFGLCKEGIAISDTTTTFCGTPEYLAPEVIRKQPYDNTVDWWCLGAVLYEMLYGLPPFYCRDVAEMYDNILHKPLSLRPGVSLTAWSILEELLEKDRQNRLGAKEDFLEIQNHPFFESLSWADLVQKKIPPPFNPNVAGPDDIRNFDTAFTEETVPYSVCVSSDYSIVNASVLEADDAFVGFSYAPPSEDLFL
In short: as §1

TNK1 = TNK1 (Homo sapiens, UniProt Q13470)
TNK1, sequence (Q13470 whole entry): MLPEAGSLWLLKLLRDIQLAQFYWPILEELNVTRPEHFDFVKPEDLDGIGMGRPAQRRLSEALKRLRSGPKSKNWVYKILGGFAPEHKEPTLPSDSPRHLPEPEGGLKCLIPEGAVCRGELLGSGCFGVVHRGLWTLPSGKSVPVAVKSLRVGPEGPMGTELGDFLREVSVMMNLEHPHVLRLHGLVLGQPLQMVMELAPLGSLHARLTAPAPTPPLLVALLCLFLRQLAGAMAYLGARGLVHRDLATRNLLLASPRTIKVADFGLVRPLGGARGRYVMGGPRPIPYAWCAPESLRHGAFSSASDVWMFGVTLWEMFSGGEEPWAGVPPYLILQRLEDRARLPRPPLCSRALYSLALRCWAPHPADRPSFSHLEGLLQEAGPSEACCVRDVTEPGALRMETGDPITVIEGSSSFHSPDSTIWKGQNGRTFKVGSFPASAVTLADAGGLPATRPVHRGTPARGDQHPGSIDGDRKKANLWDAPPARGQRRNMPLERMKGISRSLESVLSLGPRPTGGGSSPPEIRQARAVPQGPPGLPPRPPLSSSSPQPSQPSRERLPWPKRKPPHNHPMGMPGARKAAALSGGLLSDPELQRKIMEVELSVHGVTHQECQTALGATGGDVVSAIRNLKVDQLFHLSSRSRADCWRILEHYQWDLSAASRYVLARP
In short: as §1

YANK1 = target: T7, YANK1 (Homo sapiens, UniProt Q8WU08)
T7 construct: gene STK32A
T7 sequence (Q8WU08 whole entry): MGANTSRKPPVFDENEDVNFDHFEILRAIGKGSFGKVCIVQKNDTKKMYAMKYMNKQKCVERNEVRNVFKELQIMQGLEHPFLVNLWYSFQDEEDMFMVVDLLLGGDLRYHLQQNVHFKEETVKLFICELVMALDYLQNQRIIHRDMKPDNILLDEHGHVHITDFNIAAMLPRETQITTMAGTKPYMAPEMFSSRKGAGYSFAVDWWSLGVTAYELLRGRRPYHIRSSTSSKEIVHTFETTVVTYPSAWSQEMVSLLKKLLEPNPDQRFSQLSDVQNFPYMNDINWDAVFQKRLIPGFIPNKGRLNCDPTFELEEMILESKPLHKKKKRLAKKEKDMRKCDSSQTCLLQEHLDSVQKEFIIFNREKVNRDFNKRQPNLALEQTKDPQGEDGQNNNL
In short: as §1

p38-delta = target: T8, p38-delta (Homo sapiens, UniProt O15264)
T8 construct: gene MAPK13
In short: as §1

- inhibition at 1 µM (ABL1-nonphosphorylated): 13%
- inhibition at 1 µM (CDK4-cyclinD3): 15%
- inhibition at 1 µM (CLK2): 0%
- inhibition at 1 µM (CSNK1A1L): 0%
- inhibition at 1 µM (DAPK3): 0%
- inhibition at 1 µM (DCAMKL2): 0%
- inhibition at 1 µM (DYRK1B): 17%
- inhibition at 1 µM (EPHA4): 0%
- inhibition at 1 µM (EPHA5): 0%
- inhibition at 1 µM (EPHB1): 0%
- inhibition at 1 µM (FGFR4): 4%
- inhibition at 1 µM (FGR): 0%
- inhibition at 1 µM [1]: 0%
- inhibition at 1 µM (MAP4K2): 3%
- inhibition at 1 µM (NIM1): 27%
- inhibition at 1 µM (PIK3C2G): 22%
- inhibition at 1 µM (RIOK2): 9%
- inhibition at 1 µM (RIPK2): 4%
- inhibition at 1 µM [2]: 16%
- inhibition at 1 µM (SGK2): 0%
- inhibition at 1 µM (SGK3): 19%
- inhibition at 1 µM (TNK1): 35%
- inhibition at 1 µM (YANK1): 0%
- inhibition at 1 µM (p38-delta): 17%
Structure (SMILES): CNS(=O)(=O)c1ccc(N(C)C)c(Nc2nc(C)nc3cc(OC)c(OC)cc23)c1 [compound 15, 3-((6,7-dimethoxy-2-methylquinazolin-4-yl)amino)-4-(dimethylamino)-N-methylbenzenesulfonamide]

From paper PMC7180948, “New Insights into 4-Anilinoquinazolines as Inhibitors of Cardiac Troponin I–Interacting Kinase (TNNi3K)” (Molecules, 2020)
